Values of other authors, collected in patent publication US6610471B1, “Methods and compositions to investigate infection by hepatitis B virus and agents to prevent and treat the infection” (priority 1998, dated 2003).

Tested on: chronic HBV infection
Conditions: patients receiving interferon-α treatment, long-term studies; cited from earlier work

interferon-α
patients with loss of circulating HBV antigens and improved survival rate: about 30 % of patients
